# Entries after “also recorded” stand apart in the source; their conditions may differ.
# Columns and labels:
# [1] = biological target: T1, recombinant human PLP binding protein (PLPBP, UniProt 094903) (Homo sapiens, UniProt O94903); experiment: Gel-based labeling of recombinant PLPBP with PLxP probes (fluorescence SDS-PAGE); conditions: for labeling of recombinant PLPBP by PLP cofactor mimic: 1 μM PLPBP, 100 μM probe, 1 h r.t., NaBH4 reduction, click to Cy5, fluorescence SDS-Page
# T1 construct: made in house; host or cells: E. coli Rosetta2 (DE3)
# T1 sequence (O94903 whole entry): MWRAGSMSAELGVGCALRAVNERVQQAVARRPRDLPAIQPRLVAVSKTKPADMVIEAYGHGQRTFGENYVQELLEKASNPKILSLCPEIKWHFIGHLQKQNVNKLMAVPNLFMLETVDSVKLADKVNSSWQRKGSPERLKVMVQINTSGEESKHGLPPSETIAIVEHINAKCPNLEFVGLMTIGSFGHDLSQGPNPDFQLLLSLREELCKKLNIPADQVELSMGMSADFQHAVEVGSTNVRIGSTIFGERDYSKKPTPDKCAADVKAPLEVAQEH
# Experimental: Conditions: 1 μM PLPBP, 100 μM probe (incubation 1 h, r.t.), reduction (NaBH4), precipitation (Aceton), wash (MeOH), redissolve in PBS+0.2% SDS, click to Cy5. Analysis via fluorescence SDS-Page.
# Structures of the different PLP probes PL1P, PL2P and PL13P (top) that were tested for their labeling efficiency of recombinant PLP binding protein (PLPBP), separately and all three in combination on a fluorescent SDS gel (bottom). The denaturation of PLPBP via increased temperature (heat control, h.c.) prior to labeling with the combination of probes served as negative control. FM=fluorescent marker.
# In brief, PLPBP (1 μM in PBS, total volume: 50 μL) was labeled with PLxP probe or mixture of PLxP probes (PL1P, PL2P, PL13P, final conc. 100 μM) at room temperature for 30 min. Upon reduction with […] NaBH4 (1 μl of 250 mM prepared fresh in 0.1 M NaOH) at room temperature for 30 min, proteins were precipitated by adding ice-cold acetone (4× volume) and incubating at −20° C. for at least 1 h. Precipitated proteins were pelletized by centrifugation (18,000×g, 15 min, 4° C.) and washed two times with ice-cold MeOH. For washing, protein pellet is resuspended in 0.2 mL cold methanol (−80° C.) by mild sonication (10 s, 10% intensity) and centrifuged (10 000 rpm, 10 min, 4° C.). Pelletized proteins were resuspended in 50 μl PBS containing […] SDS and Click chemistry was performed by adding 100 μM Cy5 azide (1 μL of 5 mM in DMSO), 100 μM TBTA (3 μL of 1.67 mM in/BuOH/DMSO 80:20), 1 mM TCEP (0.5 μL of 15 mg/mL stock in ddH2O) and 1 mM CuSO4 (1 μL of 50 mM stock in ddH2O) to each sample and incubated for at least 1 h at r.t. Samples were quenched with 2× Lämmli buffer and analysed by SDS-PAGE (12.5% polyacrylamide gels) with subsequent fluorescence scanning.
# For this, we selected recombinant human PLP binding protein (PLPBP, UniProt 094903) as a medium abundant model PLP-DE of human erythrocytes.
# Conditions: 1 μM PLPBP, 100 μM probe (incubation 1 h, r.t.), reduction (NaBH4), precipitation (aceton), wash (MeOH), redissolve in PBS+0.2% SDS, click to Cy5. Analysis via fluorescence SDS-Page. Results see FIG. 6.
# [2] = biological target: T2, recombinant SHMT1 (Homo sapiens, UniProt P34896); experiment: Microarray readout of PL2P probe signal on recombinant SHMT1 preincubated with PLP; format: binding; conditions: apoSHMT1 preincubated with 0.5-4.0 eq PLP, fixed with NaBH4, 100 μM PL2P, click to rhodamine azide
# T2 construct: made in house; host or cells: E. coli Rosetta2 (DE3)
# T2 sequence (P34896 1-483): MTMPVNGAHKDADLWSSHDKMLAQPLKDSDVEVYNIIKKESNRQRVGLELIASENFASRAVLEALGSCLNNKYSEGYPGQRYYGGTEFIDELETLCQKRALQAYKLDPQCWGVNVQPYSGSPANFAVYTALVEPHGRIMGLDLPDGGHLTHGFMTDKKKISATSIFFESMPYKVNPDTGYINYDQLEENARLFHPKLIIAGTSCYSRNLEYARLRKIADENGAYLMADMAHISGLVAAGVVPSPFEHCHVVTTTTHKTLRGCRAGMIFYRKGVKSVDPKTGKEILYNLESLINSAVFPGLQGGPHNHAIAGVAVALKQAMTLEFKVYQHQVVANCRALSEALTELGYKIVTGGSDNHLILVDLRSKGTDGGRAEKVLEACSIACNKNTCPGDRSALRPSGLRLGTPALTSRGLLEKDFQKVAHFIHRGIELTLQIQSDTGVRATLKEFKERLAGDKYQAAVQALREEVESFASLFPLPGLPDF
# Experimental: FIG. 11. Signal intensity is dependent on saturation level of PLP-DE with PLP. • (A) PLP loading states of recombinant SHMT1 incubated with increasing equivalents (eq) of PLP were determined by intact protein-MS (n=3) as described previously (Hoegl et al., 2018). • (B) Microarray read out of recombinant SHMT1 bound PL2P probe signals preincubated with PLP equivalents in a physiological range of 0.5-4.0 eq. Mean signal intensities of anti-SHMT1 (n=8) corrected to BSA control and error bars (SD) after fluorescent readout of anti-SHMT1 3. Sample preparation according to workflow 3, as described in the Examples.
# 40 μM apoSHMT1 (25 μL) samples were incubated with increasing amounts of PLP (0 eq., 0.50 eq., 1.00 eq., 4.00 eq., 32.0 eq.) for 1 h at r.t. and subsequently treated with 20 mM NaBH4 (250 mM stock solution in 0.1 M NaOH) for 30 min at r.t. Reduction was quenched by adding cold acetone (4× volume of sample, −20° C.) for at least 1 h. Precipitated proteins were pelletized (10 000 rpm, 15 min, 4° C.) and supernatant was discarded. […] Samples are subsequently incubated and analysed on the microarrays. […]
# The samples were analysed in a single colour approach (without secondary antibody incubation) or dual-colour approach (with secondary antibody incubation) using custom microarrays containing antibodies against OAT, SHMT and PLPBP or a subset of these antibodies. […]
Compound,labeling of recombinant PLPBP by PLP cofactor mimic [1],PL2P probe signal intensity on microarray with increasing PLP saturation of SHMT1 [2],"most suitable PLP cofactor mimic for labeling of recombinant PLPBP ([1]; comparison of PL1P, PL2P, PL13P via SDS-Page)"
"C#Cc1ncc(COP(=O)(O)O)c(C=O)c1O [PL1P, (6-ethynyl-4-formyl-5-hydroxypyridin-3-yl)methyl phosphate]",successfully tested,–,–
"Cc1ncc(COP(=O)(O)O)c(C=O)c1O [PLP, pyridoxal phosphate]",–,decrease in signal intensity; also recorded: decline in signal intensity,–
(4-formyl-6-methyl-5-(prop-2-yn-1-yloxy)pyridin-3-yl)methyl phosphate [PL13P],successfully tested,–,–
(6-(but-3-yn-1-yl)-4-formyl-5-hydroxypyridin-3-yl)methyl phosphate [PL2P],successfully tested,–,most suitable
